The IC50 is the concentration that inhibits the measured activity by half.

Results on three molecules are retold here after publication PMC12679848, “Sulphonamide derivatives with a triazine core as novel inducers of apoptosis and pyroptosis in glioblastoma multiforme cells” (Journal of Enzyme Inhibition and Medicinal Chemistry, 2025).

The subject of one test is T98G. Nature of the test: MTT assay, T98G. The format is cell-based. Particulars: Homo sapiens, 24 h of incubation, read-out: IC50 values ± SEM, MTT assay. As to the method: Human glioblastoma cell lines (A172 CRL-1620™, U-87 MG HTB-14™, U-118 MG HTB-15™, T98G CRL-1690™) and the mouse astrocyte cell line (C8-D1A CRL-2541™) were obtained from the American Type Culture Collection (ATCC, Manassas, VA, USA). The cell lines were cultured in complete medium: DMEM (Corning, Kennebunk, ME, USA) for C8-D1A and T98G, and EMEM (ATCC, Manassas, VA, USA) for A172, U-87 MG, U118MG. The media were supplemented with 10% foetal bovine serum (Eurx, Gdansk, Poland) and 1% penicillin-streptomycin solution (Corning, Kennebunk, ME, USA). Cells were cultured in cell culture flasks (Sarstedt, Numbrecht, Germany) at 37 °C in 5% CO2. For experiments, cells were washed with phosphate-buffered saline without calcium and magnesium (Corning, Kennebunk, ME, USA) and treated with 0.05% trypsin and 0.02% EDTA (Corning, Kennebunk, ME, USA). Cells were counted using a Sceptre 3.0 cell counter (Merck Millipore, Burlington, MA, USA) prior to seeding into plates. For 6-well plates, 5 x 10^5 cells/mL were seeded, while for 96-well plates (Sarstedt, Numbrecht, Germany), 1 x 10^5 cells/mL were seeded in 100 μL of the medium.
The cell lines were seeded in 96-well plates and cultured according to the methodology described in the previous section. Cells were then treated with the novel derivatives MM118 and MM119 and the reference compound temozolomide (TMZ) (Sigma-Aldrich, St. Louis, MO, USA) at concentrations of 0.1, 0.25, 0.5, 1.0, 2.5, 5.0, and 10.0 μM for 24 h. The MTT assay was performed using a solution of 3–(4,5-dimethyl-2-thiazolyl)-2,5-diphenyl-2H-tetrazolium bromide (Sigma-Aldrich, St. Louis, MO, USA) at a concentration of 5 mg/mL in phosphate-buffered saline without calcium and magnesium (Corning, Kennebunk, ME, USA). After 24 h incubation with test compounds, 10 μL MTT solution was added to each well, and cells were incubated for another 2 h at 37 °C. The cells were then lysed in 100 μL lysis buffer (25 mM HCl, 2% acetic acid, 3% DMF, and 5% SDS, adjusted to pH 4.7). Absorbance was measured at 570 nm using an Absorbance 96 microplate reader (Byonoy GmbH, Hamburg, Germany).

The subject of another test is A172 xenografts. Kind of test: Zebrafish xenograft, A172. The format is in vivo. Conditions: 10 µM, 48 h, 0.1% DMSO control 4%. Here is the method:
(§1) In our study, we used wild-type AB zebrafish embryos obtained from the certified Experimental Medicine Centre (Lublin, Poland). Adult zebrafish were raised at 28.5 °C under 14 h of light and 10 h of the dark cycle and fed in accordance with the guidelines established by the Research Animals Department of the RSPCA. Fertilised eggs were obtained by natural spawning; healthy clutches were processed for study or propagated for line maintenance. Embryos were maintained in the E3 medium (5 mM NaCl, 0.33 mM MgCl2, 0.33 mM CaCl2, 0.17 mM KCl; pH 7.2) at 28.5 °C. The use of animals in scientific research in Europe is governed by the Directive 2010/63/EU of 22 September 2010. […] All procedures in this study were performed on embryos up to 5 dpf.
(§2) A172 and U-87MG cell lines were labelled with Vybrant Did (Invitrogen, Waltham, MA, USA) according to the manufacturer’s protocol. Stained cells were re-suspended in Dulbecco’s modified Eagle’s medium (DMEM) at the final concentration of 1 × 10^7 cells/mL. 24 h post-fertilisation (hpf) zebrafish were manually dechorionated. […]
(§3) Xenograft imaging has been performed before (48 hpf) and after (120 hpf) drugs treatment using an EVOS M5000 Imaging System with the filter Cy5 (excitation: 628 nm; emission: 692 nm). […] Tumour sizes were analysed as the area of labelled tumour cells according Ali et al.[18] using EVOS software.

The next test has as its system U-87MG xenografts. Nature of the test: Zebrafish xenograft, U-87 MG. In kind it is in vivo. Conditions: U-87 MG zebrafish xenografts, 10 µM, 48 h; 0.1% DMSO control 22%. As to the method:
as §1, §2, §3

The next test has as its system A172. Nature of the test: Reactive oxygen species, H2DCFDA/DAPI staining, A172. In kind it is cell-based, human. Particulars: A172, 30 min of compound treatment. Here is the method: (§4) We performed double staining with DAPI, which stains nuclear genetic material (blue fluorescence), and H2DCFDA, an indicator of oxidative stress (green fluorescence). This study allowed us to evaluate the ability of MM118 and MM119 to activate reactive oxygen species (ROS) in A172 and U-87 MG glial cells.
(§5) The impact of the tested compounds on reactive oxygen species (ROS) production was assessed. Cells were seeded in 6-well culture plates at a density of 1 × 10^5 cells per well in 1 ml of medium. Following a 30-min treatment with the compounds, cells were washed with phosphate-buffered saline (PBS). Subsequently, double staining was performed using 20 µM 2′,7′-dichlorodihydrofluorescein diacetate (H2DCFDA) (obtained from Thermo Fisher Scientific, Eugene, OR, USA). This colourless reagent is hydrolysed by intracellular esterases and subsequently oxidised to the 2′,7′-dichlorofluorescein (DCF), and 10 µg/mL of 4′,6-diamidino-2-phenylindole (DAPI) (Sigma-Aldrich, St. Louis, MO, USA) was used to stain nuclear DNA. Fluorescence was observed using a Nikon ECLIPSE Ti fluorescence microscope (Nikon, Tokyo, Japan). ImageJ software (Bethesda, MD, USA) was used for data analysis, with DCF fluorescence intensity measured relative to the control. A minimum of 100 cells per sample were analysed.

A further test relates to U-87 MG. Kind of test: Reactive oxygen species, H2DCFDA/DAPI staining, U-87 MG. In kind it is cell-based, human. Particulars: 30 min of compound treatment. As to the method: as §4, §5

`CCC(CO)NS(=O)(=O)c1ccc(-n2nc(C)c3nc4nnnn4nc32)cc1` (stereo in doubt) [MM118, N-(R)-(1-hydroxy-but-2-yl)-4-[7-methyl-5H-pyrazolo[4,3-e]tetrazolo[1,5-b][1]^,[2]^,[4]triazin-5-yl)]benzenesulfonamide]: the IC50 in the test with T98G is 2.44 ± 0.393 µM. The “average tumour size reduction” value in the test with A172 xenografts amounted to 55%. In the test on U-87MG xenografts, this molecule showed a tumour size reduction of 51%. Moreover, the “ROS, mean green (DCF) fluorescence” value in the test with A172 is given as “increase in mean green fluorescence”; in the test with U-87 MG, “effectively induce oxidative stress”.
Consider `Cn1nnc2c(C(N)=O)ncn2c1=O` [TMZ, temozolomide, reference compound], for which, in the test on T98G, the IC50 is over 10 µM.
Turning to `CCC(CO)NS(=O)(=O)c1ccc(-n2nc(C)c3nc4nnnn4nc32)cc1` (stereo in doubt) [MM119, N-(S)-(1-hydroxy-but-2-yl)-4-[7-methyl-5H-pyrazolo[4,3-e]tetrazolo[1,5-b][1]^,[2]^,[4]triazin-5-yl)]benzenesulfonamide], the IC50 with T98G was found to be 4.41 ± 1.19 µM. Moreover, the “average tumour size reduction” value in the test with A172 xenografts was 56%. This molecule also displayed a tumour size reduction in the test on U-87MG xenografts of 56%. Besides, the entries for the “ROS, mean green (DCF) fluorescence” value in the test with A172 and with U-87 MG were “increase in mean green fluorescence” and “effectively induce oxidative stress”, respectively.
